Data from ChEMBL document CHEMBL1201862, “PubChem BioAssay data set” (2004).
Activity calls are given as the source filed them.

Legend:
[1] = molecular target: C-C chemokine receptor type 6 (Homo sapiens, UniProt P51684); test: CCR6 receptor antagonists, dose response, cell-based, luminescent beta-arrestin readout (AID 504728); type: functional
Beta-galactosidase = Beta-galactosidase (Escherichia coli, UniProt Q8VNN2); test: beta-galactosidase enzyme inhibitors and activators, dose response, artefact control for CCR6 antagonist project, biochemical, E. coli enzyme, set 3 (AID 504712); type: functional
[2] = molecular target: Eukaryotic translation initiation factor 4H (Homo sapiens, UniProt Q15056); test: human eIF4H binding inhibitors, primary screen, translation initiation inhibitor project, biochemical, uHTS, fluorescence polarization (AID 2012)
[3] = molecular target: Polyadenylate-binding protein 1 (Homo sapiens, UniProt P11940); test: PABP poly(A) RNA binding inhibitors, primary screen, biochemical, fluorescence polarization, uHTS (AID 2014)
Polyadenylate-binding protein 1, sequence (P11940 whole entry): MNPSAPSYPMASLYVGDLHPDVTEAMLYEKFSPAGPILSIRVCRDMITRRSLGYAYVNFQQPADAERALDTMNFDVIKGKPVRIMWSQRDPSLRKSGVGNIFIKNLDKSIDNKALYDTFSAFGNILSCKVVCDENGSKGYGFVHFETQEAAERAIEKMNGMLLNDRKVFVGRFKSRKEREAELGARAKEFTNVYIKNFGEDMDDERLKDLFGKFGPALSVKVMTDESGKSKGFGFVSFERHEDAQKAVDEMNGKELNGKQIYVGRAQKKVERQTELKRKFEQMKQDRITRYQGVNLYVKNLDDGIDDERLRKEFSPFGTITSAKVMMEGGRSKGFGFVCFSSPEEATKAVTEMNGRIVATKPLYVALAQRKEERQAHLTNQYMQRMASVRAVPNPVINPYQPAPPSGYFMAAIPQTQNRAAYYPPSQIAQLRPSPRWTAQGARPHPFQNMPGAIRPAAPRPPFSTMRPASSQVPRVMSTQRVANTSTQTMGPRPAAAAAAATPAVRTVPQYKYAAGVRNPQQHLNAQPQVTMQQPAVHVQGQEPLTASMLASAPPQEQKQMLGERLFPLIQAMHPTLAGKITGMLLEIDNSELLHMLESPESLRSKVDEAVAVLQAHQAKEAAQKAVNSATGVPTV

[4] = molecular target: Guanyl-specific ribonuclease T1 (Aspergillus oryzae (strain ATCC 42149 / RIB 40), UniProt P00651); test: RNase T1 inhibitors, dose response, counter-screen for TPT1 inhibitor project, biochemical, fluorescence polarization, 1536-well (AID 2167)
Guanyl-specific ribonuclease T1, sequence (P00651 whole entry): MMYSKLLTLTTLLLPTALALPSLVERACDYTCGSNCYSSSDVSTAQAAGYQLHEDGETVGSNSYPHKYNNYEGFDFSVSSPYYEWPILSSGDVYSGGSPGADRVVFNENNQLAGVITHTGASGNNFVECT

SUMO-activating enzyme [5] = molecular target: T1, SUMO-activating enzyme (Homo sapiens, UniProt Q9UBT2); test: SUMOylation inhibitor hit validation, confirmation, SUMOylation inhibitor project, biochemical, AlphaScreen (AID 2018); type: functional
T1 sequence (Q9UBE0 whole entry): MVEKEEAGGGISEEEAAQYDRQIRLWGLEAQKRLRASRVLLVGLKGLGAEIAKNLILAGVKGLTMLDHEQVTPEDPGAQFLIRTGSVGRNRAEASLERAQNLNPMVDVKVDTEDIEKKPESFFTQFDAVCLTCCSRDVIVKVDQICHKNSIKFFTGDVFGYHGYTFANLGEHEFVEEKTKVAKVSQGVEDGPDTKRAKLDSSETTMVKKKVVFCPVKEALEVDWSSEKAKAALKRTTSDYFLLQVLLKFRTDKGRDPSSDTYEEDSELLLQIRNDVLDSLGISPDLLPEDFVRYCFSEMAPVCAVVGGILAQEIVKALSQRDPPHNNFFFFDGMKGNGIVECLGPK
T1 sequence (Q9UBT2 whole entry): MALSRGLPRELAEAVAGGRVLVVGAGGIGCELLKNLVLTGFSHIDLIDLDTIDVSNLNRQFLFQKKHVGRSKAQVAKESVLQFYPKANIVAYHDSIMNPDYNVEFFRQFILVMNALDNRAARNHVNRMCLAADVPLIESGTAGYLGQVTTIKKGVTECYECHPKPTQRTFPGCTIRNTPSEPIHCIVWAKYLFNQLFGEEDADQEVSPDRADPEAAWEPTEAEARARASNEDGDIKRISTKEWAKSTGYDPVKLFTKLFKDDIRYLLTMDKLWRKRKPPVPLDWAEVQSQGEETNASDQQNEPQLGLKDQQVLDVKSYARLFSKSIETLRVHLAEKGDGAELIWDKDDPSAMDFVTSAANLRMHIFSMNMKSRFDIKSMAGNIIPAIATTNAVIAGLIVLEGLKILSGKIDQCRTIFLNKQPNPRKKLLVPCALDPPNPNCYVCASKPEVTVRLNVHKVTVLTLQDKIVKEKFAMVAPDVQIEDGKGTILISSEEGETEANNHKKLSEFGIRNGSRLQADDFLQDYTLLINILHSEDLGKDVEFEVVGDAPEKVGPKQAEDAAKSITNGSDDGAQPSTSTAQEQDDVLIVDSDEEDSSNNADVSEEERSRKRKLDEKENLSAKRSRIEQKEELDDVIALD

SUMO-activating enzyme [6] = molecular target: T1, SUMO-activating enzyme; test: inhibitors of in vitro SUMOylation cascade, primary screen, biochemical, HTRF, uHTS (AID 2006); type: protein-complex assay
[7] = molecular target: Likely tRNA 2'-phosphotransferase (Candida albicans (strain SC5314 / ATCC MYA-2876) (Yeast), UniProt Q5A7N4); test: TPT1 tRNA phosphotransferase inhibitors, dose response, biochemical, fluorescence polarization (AID 2160)
[8] = molecular target: Induced myeloid leukemia cell differentiation protein Mcl-1 (Homo sapiens, UniProt Q07820); type: functional
[9] = molecular target: Intestinal-type alkaline phosphatase (Homo sapiens, UniProt P09923); test: activation of human intestinal alkaline phosphatase – biochemical, dose response (AID 488873); type: functional
Intestinal-type alkaline phosphatase (Homo sapiens, UniProt P09923), sequence (P09923 whole entry): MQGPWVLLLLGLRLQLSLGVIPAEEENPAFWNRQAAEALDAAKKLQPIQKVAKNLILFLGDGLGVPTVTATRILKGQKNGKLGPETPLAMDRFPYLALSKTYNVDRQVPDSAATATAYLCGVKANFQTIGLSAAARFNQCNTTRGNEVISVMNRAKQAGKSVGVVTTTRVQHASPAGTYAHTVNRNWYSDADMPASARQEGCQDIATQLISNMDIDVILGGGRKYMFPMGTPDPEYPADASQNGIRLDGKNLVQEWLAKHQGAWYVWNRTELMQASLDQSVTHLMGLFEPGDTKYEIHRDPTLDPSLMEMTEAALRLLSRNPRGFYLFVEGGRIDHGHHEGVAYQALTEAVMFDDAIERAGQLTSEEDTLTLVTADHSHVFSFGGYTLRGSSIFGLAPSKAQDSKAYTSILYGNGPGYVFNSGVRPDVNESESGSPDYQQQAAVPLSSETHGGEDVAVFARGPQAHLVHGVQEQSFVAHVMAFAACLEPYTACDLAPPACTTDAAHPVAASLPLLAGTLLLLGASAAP

[10] = molecular target: Intestinal-type alkaline phosphatase (Mus musculus, UniProt P24822); test: PubChem AID 488785; type: functional
Intestinal-type alkaline phosphatase (Mus musculus, UniProt P24822), sequence (P24822 whole entry): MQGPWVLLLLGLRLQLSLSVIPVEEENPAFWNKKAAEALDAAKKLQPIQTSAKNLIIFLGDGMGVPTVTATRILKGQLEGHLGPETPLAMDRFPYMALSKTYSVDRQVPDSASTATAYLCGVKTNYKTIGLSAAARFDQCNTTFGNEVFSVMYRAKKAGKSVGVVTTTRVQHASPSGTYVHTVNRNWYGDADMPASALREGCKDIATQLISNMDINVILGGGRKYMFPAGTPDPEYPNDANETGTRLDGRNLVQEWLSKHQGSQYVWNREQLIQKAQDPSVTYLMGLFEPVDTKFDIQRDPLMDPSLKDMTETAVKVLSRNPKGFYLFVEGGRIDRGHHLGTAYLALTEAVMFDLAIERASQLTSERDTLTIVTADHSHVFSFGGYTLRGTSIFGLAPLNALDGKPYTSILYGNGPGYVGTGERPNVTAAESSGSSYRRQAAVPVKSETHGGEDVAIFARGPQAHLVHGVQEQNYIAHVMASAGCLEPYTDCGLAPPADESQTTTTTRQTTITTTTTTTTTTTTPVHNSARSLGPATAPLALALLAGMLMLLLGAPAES

[11] = molecular target: T2, Alkaline phosphatase, tissue-nonspecific isozyme (Homo sapiens, UniProt P05186); test: TNAP enzyme inhibition by screening hits, dose response, selectivity assay for mouse IAP inhibitor project, biochemical, human TNAP, uHTS hits (AID 488906); type: functional
T2 sequence (P05186 whole entry): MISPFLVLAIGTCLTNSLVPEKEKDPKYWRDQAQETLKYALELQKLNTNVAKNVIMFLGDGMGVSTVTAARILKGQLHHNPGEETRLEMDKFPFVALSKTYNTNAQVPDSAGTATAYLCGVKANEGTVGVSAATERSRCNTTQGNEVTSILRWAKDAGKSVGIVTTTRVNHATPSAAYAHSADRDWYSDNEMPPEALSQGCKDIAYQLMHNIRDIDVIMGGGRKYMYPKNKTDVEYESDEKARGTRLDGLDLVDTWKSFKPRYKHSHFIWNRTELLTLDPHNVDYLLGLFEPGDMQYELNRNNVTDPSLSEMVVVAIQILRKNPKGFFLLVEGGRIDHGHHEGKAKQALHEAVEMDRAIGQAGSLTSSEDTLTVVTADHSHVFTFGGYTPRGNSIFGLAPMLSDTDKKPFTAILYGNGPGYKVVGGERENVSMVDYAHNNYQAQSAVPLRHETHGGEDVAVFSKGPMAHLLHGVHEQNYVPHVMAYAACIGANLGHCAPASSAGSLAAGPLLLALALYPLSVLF

Cysteine protease ATG4B = molecular target: T3, Cysteine protease ATG4B (Homo sapiens, UniProt Q9Y4P1); type: functional;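 further: Fluorescence-based dose-response confirmation assay measuring inhibition of ATG4B activity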
T3 sequence (Q9Y4P1 whole entry): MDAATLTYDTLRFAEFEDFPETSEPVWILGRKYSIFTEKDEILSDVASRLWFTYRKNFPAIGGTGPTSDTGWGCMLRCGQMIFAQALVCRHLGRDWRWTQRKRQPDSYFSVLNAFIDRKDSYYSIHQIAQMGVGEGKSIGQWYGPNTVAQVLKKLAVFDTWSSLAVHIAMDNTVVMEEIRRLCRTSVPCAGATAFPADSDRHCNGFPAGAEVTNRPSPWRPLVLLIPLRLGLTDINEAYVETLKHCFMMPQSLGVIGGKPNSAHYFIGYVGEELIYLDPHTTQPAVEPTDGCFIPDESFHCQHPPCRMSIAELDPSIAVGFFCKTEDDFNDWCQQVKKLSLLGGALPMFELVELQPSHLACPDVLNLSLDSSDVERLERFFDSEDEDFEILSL

Phospholipase A2 = Phospholipase A2 (Homo sapiens, UniProt P04054); type: functional;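 further: confirmatory dose-response counterscreen on phospholipase A2, testing hits that came from an ultra-high-throughput screen for ATG4B inhibitors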
Phospholipase A2, sequence (P04054 whole entry, the tested form may be a part): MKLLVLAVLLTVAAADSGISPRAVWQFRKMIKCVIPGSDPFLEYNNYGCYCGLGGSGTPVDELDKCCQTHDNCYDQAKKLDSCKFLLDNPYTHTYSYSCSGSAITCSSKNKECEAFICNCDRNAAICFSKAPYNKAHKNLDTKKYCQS

[12] = luciferase reporter signal reduction – luminescence, H4-C neuroglioblastoma cells, dose response (AID 2458); type: functional, cell-based;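 further: H4 neuroglioblastoma cells stably carrying a luciferase reporter gene fusion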
cells [13] = type: functional, cell-based
[14] = Luminescence Cell-Based Dose Response HTS to Identify Inhibitors of 5'UTR Stem-Loop Driven Prion Protein mRNA Translation in H4 Neuroglioblastoma Cells. [Related pubchem assays: 1827 (Project Summary), 1813 (Primary HTS)]; type: functional
[15] = inhibitors of SNCA 5'UTR-driven reporter translation, confirmation, H4 neuroglioma cells, luminescence (AID 1988); type: functional, cell-based
[16] = inhibitors of SNCA 5'UTR-driven translation, confirmation, luminescence, H4 neuroglioblastoma cells, dose confirmation (AID 2454); type: functional, cell-based;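 further: H4 neuroglioblastoma cells carrying an alpha-synuclein 5'UTR luciferase reporter; potency for inhibition of the luciferase signal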
[17] = cytotoxicity in HEK-293T cells, dose response, cytotoxicity control for BCR NF-kB inhibitor project, luminescence, B-cell screen hits (AID 489021); type: functional, cell-based;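 further: HEK-293T cells carrying an NF-kB luciferase reporter; cells exposed to compound for about 14 hours before viability readout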
[18] = molecular target: G2/mitotic-specific cyclin-B1 (Homo sapiens, UniProt P14635); test: Counterscreen assay for inhibitors of Wee1 degradation: dose response cell-based assay to identify inhibitors of cyclin B degradation. [Related pubchem assays: 1410, 1321 ]; type: functional
G2/mitotic-specific cyclin-B1, sequence (P14635 whole entry): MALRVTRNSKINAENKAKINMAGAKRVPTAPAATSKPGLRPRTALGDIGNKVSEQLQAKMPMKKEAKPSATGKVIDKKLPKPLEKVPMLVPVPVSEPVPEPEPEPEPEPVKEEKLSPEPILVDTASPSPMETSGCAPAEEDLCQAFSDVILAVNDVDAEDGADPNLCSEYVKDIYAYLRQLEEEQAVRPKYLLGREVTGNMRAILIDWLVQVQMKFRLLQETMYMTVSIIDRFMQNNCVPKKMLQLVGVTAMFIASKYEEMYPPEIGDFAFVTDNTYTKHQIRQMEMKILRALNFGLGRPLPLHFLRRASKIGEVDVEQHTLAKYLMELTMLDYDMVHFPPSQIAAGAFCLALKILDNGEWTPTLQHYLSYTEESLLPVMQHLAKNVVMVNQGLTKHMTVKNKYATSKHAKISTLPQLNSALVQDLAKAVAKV

Wee1-like protein kinase = Wee1-like protein kinase (Homo sapiens, UniProt P30291); test: Dose Response Cell-based Assay for Inhibitors of Wee1 Degradation. [Related pubchem assays: 1410, 1321 ]; type: functional
[19] = molecular target: Photoreceptor-specific nuclear receptor (Homo sapiens, UniProt Q9Y5X4); type: functional;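 further: potency for compounds that break the NR2E3 corepressor complex and count as activators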
[20] = molecular target: Peroxisome proliferator-activated receptor gamma/Nuclear receptor corepressor 2 (Homo sapiens, UniProt P37231+Q9Y618); type: functional
[21] = molecular target: T4, Eukaryotic translation initiation factor 2-alpha kinase 3 (Homo sapiens, UniProt Q9NZJ5); test: Dose response cell-based high-throughput screening assay to measure PERK inhibition. [Related pubchem assays: 1416 ]; type: functional
T4 sequence (Q9NZJ5 whole entry): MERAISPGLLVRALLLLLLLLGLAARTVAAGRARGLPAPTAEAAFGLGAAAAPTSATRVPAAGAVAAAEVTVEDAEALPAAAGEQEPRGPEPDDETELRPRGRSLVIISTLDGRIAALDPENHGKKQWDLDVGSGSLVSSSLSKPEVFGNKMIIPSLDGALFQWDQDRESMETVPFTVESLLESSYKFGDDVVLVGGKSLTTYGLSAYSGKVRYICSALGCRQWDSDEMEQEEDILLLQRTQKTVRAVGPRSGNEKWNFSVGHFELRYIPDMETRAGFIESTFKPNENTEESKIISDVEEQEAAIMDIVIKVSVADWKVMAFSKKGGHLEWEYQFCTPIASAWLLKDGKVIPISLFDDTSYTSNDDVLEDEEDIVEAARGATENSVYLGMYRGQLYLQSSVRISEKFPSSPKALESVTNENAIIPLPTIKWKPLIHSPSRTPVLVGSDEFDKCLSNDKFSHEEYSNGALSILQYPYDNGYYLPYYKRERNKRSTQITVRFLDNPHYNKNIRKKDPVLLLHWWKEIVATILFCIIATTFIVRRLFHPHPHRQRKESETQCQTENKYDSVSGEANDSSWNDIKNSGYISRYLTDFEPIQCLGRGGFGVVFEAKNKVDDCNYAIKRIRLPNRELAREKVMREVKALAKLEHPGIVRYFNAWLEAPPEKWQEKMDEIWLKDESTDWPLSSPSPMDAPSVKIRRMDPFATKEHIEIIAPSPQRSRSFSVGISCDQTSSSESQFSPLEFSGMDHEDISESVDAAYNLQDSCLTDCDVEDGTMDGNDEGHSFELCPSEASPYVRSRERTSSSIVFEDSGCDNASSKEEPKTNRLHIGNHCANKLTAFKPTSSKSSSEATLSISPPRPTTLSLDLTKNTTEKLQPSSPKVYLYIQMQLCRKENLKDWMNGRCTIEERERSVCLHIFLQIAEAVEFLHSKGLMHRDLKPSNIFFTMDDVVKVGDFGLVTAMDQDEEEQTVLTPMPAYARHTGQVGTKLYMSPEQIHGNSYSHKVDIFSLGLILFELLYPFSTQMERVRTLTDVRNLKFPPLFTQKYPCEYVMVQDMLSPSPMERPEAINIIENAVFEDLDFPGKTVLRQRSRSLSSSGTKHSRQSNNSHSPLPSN

[22] = molecular target: T4, Eukaryotic translation initiation factor 2-alpha kinase 3; test: Counterscreen assay for PERK inhibitors: Dose response cell-based high throughput screening assay to measure inhibition of PERK at 6 hours. [Related pubchem assays: 1522, 1416 ]; type: functional
[23] = molecular target: T2, Alkaline phosphatase, tissue-nonspecific isozyme
[24] = NIH-3T3 fibroblast cytotoxicity, dose response, cytotoxicity control, cell-based, fluorescence, Alamar Blue, secondary assay (AID 2327); type: functional;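 further: NIH-3T3 mouse fibroblasts cultured with fluconazole at 8 µg/mL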
[25] = A cytotoxicity screen of small molecule inhibitors of the PhoP region in Salmonella typhi identified in the primary screen. [Related pubchem assays: 1850, 1864, 1985 ]; type: functional
[26] = C. albicans growth with fluconazole, confirmation, fluorescence, retest (AID 2467); type: functional, cell-based
[27] = Luminescence Cell-Based Dose Retest to Confirm Inhibitors of Cancer Stem Cells. [Related pubchem assays (depositor defined):AID2717, AID2721]; type: functional; conditions: Homo sapiens
[28] = molecular target: Serine/threonine-protein phosphatase PP1-alpha catalytic subunit (Homo sapiens, UniProt P62136); test: PP1 phosphatase inhibitors, dose response, biochemical, fluorescence (AID 2403);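 further: phosphatase turnover of OMFP into fluorescent 3-O-methylfluorescein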
[29] = molecular target: Serine/threonine-protein phosphatase (Homo sapiens, UniProt Q9BPW0); test: Counterscreen for inhibitors of PP1: fluorescence-based biochemical high throughput dose response assay to identify inhibitors of Protein Phosphatase 5 (PP5). [Related pubchem assays: 2034 (Summary (PP5 inhibitors)), 1987 (PP5 inhibitors in singlate), 2235 (PP1 inhibitors in singlate)]
[30] = THP-1 cell cytotoxicity, dose response, cytotoxicity control for non-replicating M. tuberculosis project (AID 489025); type: functional
[31] = Vero E6 cell cytotoxicity, dose response, cytotoxicity control for non-replicating M. tuberculosis project, secondary assay (AID 492998); type: functional, VeroE6; conditions: Vero C1008
cells [32] = type: functional
INS1 = test: beta cell apoptosis inhibitors, cytokine rescue, dose response, luminescence, retest (AID 449756); type: functional, cell-based; conditions: Rattus norvegicus;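 further: cell death triggered by IL-1 beta plus TNF-alpha plus IFN-gamma mixture; protective hits raise ATP signal compared with cytokine alone wells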
[33] = inhibitors of firefly luciferase expression or activity, dose response, H4 neuroglioma cells, luminescence (AID 1990); type: functional, cell-based
[34] = molecular target: T5, RNA-binding protein pos-1 (Caenorhabditis elegans, UniProt G5EF15); test: inhibitors of POS-1/mex-3 RNA binding, dose response, biochemical, fluorescence polarization (AID 1964);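 further: purified POS-1 fused to maltose binding protein made in E. coli; potency of compounds blocking POS-1 binding to fluorescent RNA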
T5 sequence (G5EF15 whole entry): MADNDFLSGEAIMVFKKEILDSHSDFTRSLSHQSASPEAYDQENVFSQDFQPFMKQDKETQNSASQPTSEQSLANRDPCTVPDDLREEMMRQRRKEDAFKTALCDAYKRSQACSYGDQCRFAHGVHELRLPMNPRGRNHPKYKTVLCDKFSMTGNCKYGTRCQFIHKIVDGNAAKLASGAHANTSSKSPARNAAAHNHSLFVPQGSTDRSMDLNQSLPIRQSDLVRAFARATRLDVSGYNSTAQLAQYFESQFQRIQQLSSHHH

Cytochrome P450 2D6 = Cytochrome P450 2D6 (Homo sapiens, UniProt P10635); test: qHTS Assay for Inhibitors and Substrates of Cytochrome P450 2D6. [Related pubchem assays: 410 ]; type: ADME; conditions: read-out: Potency
[35] = molecular target: T6, Zinc finger protein mex-5 (Caenorhabditis elegans, UniProt Q9XUB2); test: MEX-5/TCR-2 RNA interaction inhibitors, dose response, biochemical, C. elegans, fluorescence polarization (AID 1960)
T6 sequence (Q9XUB2 whole entry): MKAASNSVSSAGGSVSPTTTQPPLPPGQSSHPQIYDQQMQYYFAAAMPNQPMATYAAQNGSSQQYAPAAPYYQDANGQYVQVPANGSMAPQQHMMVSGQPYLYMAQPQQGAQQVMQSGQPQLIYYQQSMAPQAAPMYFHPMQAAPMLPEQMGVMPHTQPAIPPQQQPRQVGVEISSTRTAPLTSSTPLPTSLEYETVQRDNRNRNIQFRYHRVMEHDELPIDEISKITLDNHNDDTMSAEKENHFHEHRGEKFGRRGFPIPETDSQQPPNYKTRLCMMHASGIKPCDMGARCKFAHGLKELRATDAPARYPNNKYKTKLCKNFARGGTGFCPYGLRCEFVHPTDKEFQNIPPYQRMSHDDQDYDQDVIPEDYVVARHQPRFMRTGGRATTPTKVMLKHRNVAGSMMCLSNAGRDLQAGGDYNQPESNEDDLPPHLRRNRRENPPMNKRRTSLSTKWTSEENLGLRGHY

Cytochrome P450 2C9 = Cytochrome P450 2C9 (Homo sapiens, UniProt P11712); conditions: Potency

CN(Cc1ccccc1)S(=O)(=O)c1ccc(NC(=S)NC(=O)C2CCCCC2)cc1
IC50 [1]: > 66.6 µM (inactive) | IC50 (Beta-galactosidase): > 66.6 µM (inactive)

O=C(Nc1ccc2ncccc2c1)c1ccccc1
IC50 [2]: > 100 µM (inactive) | IC50 [3]: 14.2 µM (active)

O=C(NN1C(=O)/C(=C/C=C/c2ccco2)SC1=S)c1ccncc1
IC50 [4]: 12.3 µM (not active) | IC50 (SUMO-activating enzyme [5]): 0.53 µM (active) | IC50 (SUMO-activating enzyme [6]): 6.1 µM (active) | IC50 [7]: 14 µM (not active) | IC50 [8]: 5.08 µM (active) | EC50 [9]: > 100 µM (inactive) | IC50 [10]: 13.5 µM (active) | IC50 [11]: > 100 µM (inactive) | IC50 (Cysteine protease ATG4B): 11.1 µM (active) | IC50 (Phospholipase A2): > 80 µM (inactive)

O=C(Nc1ccc(NC(=O)c2cc3ccccc3o2)cc1)c1ccc2c(c1)OCCO2
EC50 [12]: 3.02 µM (active) | EC50 (cells [13]): > 12 µM (not active) | EC50 [14]: 12.7 µM (active) | EC50 [15]: < 0.1 µM (active) | EC50 [16]: 2.35 µM (active) | IC50 [17]: > 80 µM (inactive)

COc1ccccc1-c1ccc(SCc2ccccc2F)nn1
EC50 [18]: > 49.7 µM (not active) | EC50 (Wee1-like protein kinase): > 49.7 µM (not active)

Cc1ccc(-n2c(=S)[nH]c3c(oc4ccccc43)c2=O)cc1
IC50 [19]: 4.75 µM (active) | IC50 [20]: 6.54 µM (active)

FC(F)(F)c1cccc(Oc2ccc3c(C(F)(F)F)cc(C(F)(F)F)nc3n2)c1
EC50 [21]: > 55.7 µM (not active) | EC50 [22]: > 55.7 µM (not active)

COc1cccc(N(C(=O)c2cc[nH]n2)C2(C(=O)Nc3c(C)cccc3C)CCCCC2)c1
EC50 [23]: 52.9 µM (not active)

Cc1ccc(N/N=C/c2ccncc2)cc1
EC50 [24]: 14.4 µM (active) | EC50 [25]: > 50 µM (active) | EC50 [26]: > 38 µM (not active) | AC50 [27]: 4.65 µM (active)

COc1ccc(/C=N/Nc2cc(C)nc(-n3nc(C)cc3C)n2)cc1
IC50 [28]: 5.81 µM (active) | IC50 [29]: > 67 µM (not active) | CC50 [30]: 6.97 µM (active) | CC50 [31]: 8.36 µM (active) | IC50 (cells [32]): < 0.1 µM (active) | AC50 (INS1): 2.42 µM (active)

COc1cc2c(cc1OC)-c1c(OC)c(OC)cc3ccnc(c13)C2=O [OXOGLAUCINE]
EC50 [33]: > 120 µM (not active) | EC50 [34]: 68.6 µM (active) | EC50 [14]: 9.88 µM (active) | AC50 (Cytochrome P450 2D6): 10 µM (inconclusive) | EC50 [35]: 0.834 µM (active) | EC50 [15]: 7 µM (active) | AC50 (Cytochrome P450 2C9): 39.8 µM (inconclusive)
